{"source": "patent US10827945B2", "about": "“Radiologically identified tumor habitats” (H. LEE MOFFITT CANCER CENTER AND RESEARCH INSTITUTE, INC., priority 2014, dated 2020)", "key": {"[1]": {"tested_on": "orthotopically implanted MiaPaCa2 PDAC cells", "test": "DCE-MRI/diffusion MRI in orthotopically implanted MiaPaCa2 PDAC", "assay_type": "in vivo", "details": "orthotopic MiaPaCa2", "source_text": "(§1) In a parallel study, DCE-MRI and Diffusion MRI were investigated as response biomarkers to TH-302 in flank implanted MiaPaCa2 pancreatic adenocarcinoma (PDAC) models. […] 2012 30(7):1002-9]. In a follow-on study, orthotopically implanted Hs766t, MiaPaCa2 and Su.86.86 PDAC cells were used, which have differential sensitivities to TH-302 as monotherapy."}, "[2]": {"tested_on": "flank implanted MiaPaCa2 pancreatic adenocarcinoma (PDAC)", "details": "cited from earlier work"}, "[3]": {"details": "based on phase I data; cited from earlier work"}, "[4]": {"tested_on": "orthotopically implanted Su.86.86 PDAC cells", "test": "DCE-MRI/diffusion MRI in orthotopically implanted Su.86.86 PDAC", "assay_type": "in vivo", "details": "orthotopic Su.86.86", "source_text": "as §1"}, "[5]": {"tested_on": "regions of profound hypoxia", "details": "cited from earlier work"}, "[6]": {"tested_on": "orthotopically implanted Hs766t PDAC cells", "test": "DCE-MRI/diffusion MRI in orthotopically implanted Hs766t PDAC", "assay_type": "in vivo", "details": "orthotopic Hs766t", "source_text": "as §1"}, "[7]": {"tested_on": "soft tissue sarcomas (STS)", "details": "across all histological sub-types of STS; cited from earlier work"}, "[8]": {"tested_on": "osteosarcoma xenotransplants", "test": "Osteosarcoma xenotransplant models, ADC (diffusion MRI) and tumor response", "assay_type": "in vivo, mouse", "details": "for anti-tumor response: osteosarcoma xenotransplants; for shift of ADC histograms: within 48 hr following treatment", "source_text": "Combined MRI and histology image analyses were used to examine effects of dasatinib+Tcn in a Ewings sarcoma model; and the response to a novel Wee-1 checkpoint inhibitor, MK1775, alone and in combination with gemcitabine in osteosarcoma xenotransplants [Kreahling J M, et al. Mol Cancer Ther. 2012 11(1):174-82; Kreahling J M, et al. PloS one. 2013 8(3):e57523]. In the Ewing's model, the pre-therapy spin-echo T2 and post-therapy response of ADC were compared to tumor volume changes.\nIn the osteosarcoma xenotransplant models, the change in ADC was measured following treatment with gemcitabine and the wee-1 inhibitor MK-1775, alone and in combination. […] The change in ADC was highly correlated with tumor growth rate response. Also, the shapes of the histograms changed with response, going from Gaussian to a log-normal distributions, with increased skewness.\nAt a deeper level of analysis, the ADC maps were analyzed for image entropy, which is calculated as the randomness of a 3×3 pixel matrix surrounding the pixel under test (P-U-T)."}, "tumors in KPC mice": {"tested_on": "tumors in KPC mice", "details": "KPC (KrasG12D; p53R172H; Pdx1-Cre) GEMM; cited from earlier work"}}, "data": [{"smiles": "Cn1c(COP(=O)(NCCBr)NCCBr)cnc1[N+](=O)[O-]", "note": "[TH-302]", "values": [{"measurement": "Ktrans in response to treatment", "setting": "[1]", "result": "decreases"}, {"measurement": "mean ADC", "setting": "[1]", "result": "no changes"}, {"measurement": "sensitivity as monotherapy", "setting": "[1]", "result": "responsive"}, {"measurement": "ADC (diffusion MRI)", "setting": "[2]; at any time point", "result": "no differences"}, {"measurement": "Ktrans (DCE-MRI)", "setting": "[2]; initial change, strongly correlated with tumor control", "result": "drop"}, {"measurement": "tolerability", "setting": "[3]", "result": "well-tolerated"}, {"measurement": "Ktrans in response to treatment", "setting": "[4]", "result": "not"}, {"measurement": "mean ADC", "setting": "[4]", "result": "no changes"}, {"measurement": "sensitivity as monotherapy", "setting": "[4]", "result": "resistant"}, {"measurement": "pO2 at which the warhead is released", "setting": "[5]", "result": "< 10", "unit": "mm Hg"}, {"measurement": "Ktrans in response to treatment", "setting": "[6]", "result": "decreases"}, {"measurement": "mean ADC", "setting": "[6]", "result": "no changes"}, {"measurement": "sensitivity as monotherapy", "setting": "[6]", "result": "responsive"}]}, {"smiles": "COc1cccc2c1C(=O)c1c(O)c3c(c(O)c1C2=O)C[C@@](O)(C(=O)CO)C[C@@H]3O[C@H]1C[C@H](N)[C@H](O)[C@H](C)O1", "note": "[DOX, doxorubicin]", "values": [{"measurement": "response rate", "setting": "[7]", "result": "25-40%"}]}, {"smiles": "Nc1ccn([C@@H]2O[C@H](CO)[C@@H](O)C2(F)F)c(=O)n1", "note": "[gemcitabine]", "values": [{"measurement": "change in average ADC-entropy values from pre-treatment", "setting": "[8]; compared to controls (p=0.022) and MK1775 (p=0.023)", "result": "statistically larger variations in ADC values"}, {"measurement": "anti-tumor response", "setting": "[8]", "result": "robust anti-tumor response"}, {"measurement": "anti-tumor response", "setting": "[8]; listed as Gem", "result": "responded to therapy"}, {"measurement": "shift of ADC histograms", "setting": "[8]", "result": "shifted to the right"}, {"measurement": "sensitivity of tumors", "setting": "tumors in KPC mice", "result": "generally resistant"}]}, {"smiles": "C=CCn1c(=O)c2cnc(Nc3ccc(N4CCN(C)CC4)cc3)nc2n1-c1cccc(C(C)(C)O)n1", "note": "[MK-1775]", "values": [{"measurement": "anti-tumor response", "setting": "[8]", "result": "non-responsive"}, {"measurement": "anti-tumor response", "setting": "[8]; listed as MK1775", "result": "did not"}, {"measurement": "shift of ADC histograms", "setting": "[8]", "result": "not"}]}]}
